Laboratory results from ChEMBL document CHEMBL3885861, “Open TG-GATES”.

Species: Rattus norvegicus
Assay: Open TG-GATES - Regimen: Single
Type: toxicity, organism-based, Sprague-Dawley
Set-up: regimen Single, gender Male, age 6 weeks
Conditions: in vivo, po, 150 mg/kg, route gavage, dose level Middle; for APTT / Bas / Eos / Fbg / Hb / Ht / Lym / MCH / MCHC / MCV / Mono / Neu / PT / Plat / RBC / Ret / WBC: tissue Blood; for KIDNEY_L / KIDNEY_R / KIDNEY_TOTAL: tissue Kidney; for LIVER: tissue Liver; for A/G / ALP / ALT / AST / BUN / CRE / Ca / Cl / DBIL / GLC / IP / K / LDH / Na / PL / RALB / TBIL / TC / TG / TP / gamma-GTP: tissue Plasma

With `CN1C(=O)OC(C)(C)C1=O` [TRIMETHADIONE] the TERMINAL_BW (3 h) was 208.1 g, the APTT (3 h) was 15.9 s and the Bas (3 h) was 0%. For the same molecule, the Eos (3 h) was 0.6%, the Fbg (3 h) was 262.2 mg/dL and the Hb (3 h) was 13.4 g/dL. It also gave a Ht (3 h) of 40.4%, a Lym (3 h) of 78.8% and an MCH (3 h) of 21.4 pg. For the same molecule, the MCHC (3 h) was 33.2%, the MCV (3 h) was 64.6 fL and the Mono (3 h) was 2.4%. The Neu (3 h) was 17.2%, the PT (3 h) was 13.5 s and the Plat (3 h) was 114.9 x10_4/uL. The RBC (3 h) was 625.4 x10_4/ul, the Ret (3 h) was 7.7% and the WBC (3 h) was 81.5 x10_2/uL. The KIDNEY_L (3 h) was 0.9 g, the KIDNEY_R (3 h) was 0.9 g and the KIDNEY_TOTAL (3 h) was 1.8 g. For the same molecule, the LIVER (3 h) was 9.1 g, the A/G (3 h) was 0.9 and the ALP (3 h) was 1472.2 IU/L. It also gave an ALT (3 h) of 38.4 IU/L, an AST (3 h) of 70.6 IU/L and a BUN (3 h) of 10 mg/dL. For the same molecule, the CRE (3 h) was 0.2 mg/dL, the Ca (3 h) was 10.6 mg/dL and the Cl (3 h) was 108 meq/L. For the same molecule, the DBIL (3 h) was 0.004 mg/dL, the GLC (3 h) was 177.8 mg/dL and the IP (3 h) was 8.3 mg/dL. The K (3 h) was 4.2 meq/L, the LDH (3 h) was 106 IU/L and the Na (3 h) was 141 meq/L. The PL (3 h) was 144.4 mg/dL, the RALB (3 h) was 2.5 g/dL and the TBIL (3 h) was 0.056 mg/dL. The TC (3 h) was 75 mg/dL, the TG (3 h) was 82 mg/dL and the TP (3 h) was 5.3 g/dL. The gamma-GTP (3 h) was 1 IU/L, the TERMINAL_BW (6 h) was 209 g and the APTT (6 h) was 16.3 s. The Bas (6 h) was 0.2%, the Eos (6 h) was 1% and the Fbg (6 h) was 267 mg/dL. For the same molecule, the Hb (6 h) was 13.4 g/dL, the Ht (6 h) was 40.1% and the Lym (6 h) was 80.8%. The MCH (6 h) was 21.7 pg, the MCHC (6 h) was 33.3% and the MCV (6 h) was 65.3 fL. For the same molecule, the Mono (6 h) was 2.4%, the Neu (6 h) was 15.2% and the PT (6 h) was 13.8 s. The Plat (6 h) was 126.8 x10_4/uL, the RBC (6 h) was 614.2 x10_4/ul and the Ret (6 h) was 8.4%. For the same molecule, the WBC (6 h) was 94.5 x10_2/uL, the KIDNEY_L (6 h) was 0.9 g and the KIDNEY_R (6 h) was 0.9 g. It also gave a KIDNEY_TOTAL (6 h) of 1.8 g, an LIVER (6 h) of 8.6 g and an A/G (6 h) of 0.9. The ALP (6 h) was 1642.2 IU/L, the ALT (6 h) was 36.2 IU/L and the AST (6 h) was 72.2 IU/L. For the same molecule, the BUN (6 h) was 8.6 mg/dL, the CRE (6 h) was 0.2 mg/dL and the Ca (6 h) was 10.6 mg/dL. The Cl (6 h) was 107.4 meq/L, the DBIL (6 h) was 0.004 mg/dL and the GLC (6 h) was 175.8 mg/dL. The IP (6 h) was 8.9 mg/dL, the K (6 h) was 4.3 meq/L and the LDH (6 h) was 79.4 IU/L. The Na (6 h) was 140.6 meq/L, the PL (6 h) was 139.4 mg/dL and the RALB (6 h) was 2.4 g/dL. The TBIL (6 h) was 0.062 mg/dL, the TC (6 h) was 76 mg/dL and the TG (6 h) was 54.6 mg/dL. It also gave a TP (6 h) of 5.2 g/dL, a gamma-GTP (6 h) of 1 IU/L and a TERMINAL_BW (9 h) of 204.4 g. The APTT (9 h) was 17.8 s, the Bas (9 h) was 0% and the Eos (9 h) was 1%. The Fbg (9 h) was 276 mg/dL, the Hb (9 h) was 13.2 g/dL and the Ht (9 h) was 39.8%. For the same molecule, the Lym (9 h) was 76%, the MCH (9 h) was 21.7 pg and the MCHC (9 h) was 33.2%. It also gave an MCV (9 h) of 65.5 fL, a Mono (9 h) of 2.2% and a Neu (9 h) of 20.8%. For the same molecule, the PT (9 h) was 14 s, the Plat (9 h) was 119.5 x10_4/uL and the RBC (9 h) was 608.8 x10_4/ul. It also gave a Ret (9 h) of 8.3%, a WBC (9 h) of 84 x10_2/uL and a KIDNEY_L (9 h) of 0.9 g. The KIDNEY_R (9 h) was 0.9 g, the KIDNEY_TOTAL (9 h) was 1.8 g and the LIVER (9 h) was 7.8 g. It also gave an A/G (9 h) of 0.9, an ALP (9 h) of 1417.8 IU/L and an ALT (9 h) of 33.8 IU/L. It also gave an AST (9 h) of 72.2 IU/L, a BUN (9 h) of 7.2 mg/dL and a CRE (9 h) of 0.2 mg/dL. It also gave a Ca (9 h) of 10.3 mg/dL, a Cl (9 h) of 109.8 meq/L and a DBIL (9 h) of 0 mg/dL. It also gave a GLC (9 h) of 164.4 mg/dL, an IP (9 h) of 9.9 mg/dL and a K (9 h) of 3.9 meq/L. For the same molecule, the LDH (9 h) was 118.2 IU/L, the Na (9 h) was 142.4 meq/L and the PL (9 h) was 137.4 mg/dL. It also gave an RALB (9 h) of 2.5 g/dL, a TBIL (9 h) of 0.066 mg/dL and a TC (9 h) of 74.4 mg/dL. For the same molecule, the TG (9 h) was 32.4 mg/dL, the TP (9 h) was 5.3 g/dL and the gamma-GTP (9 h) was 1 IU/L. For the same molecule, the TERMINAL_BW (24 h) was 217.7 g, the APTT (24 h) was 20.8 s and the Bas (24 h) was 0%. It also gave an Eos (24 h) of 1%, a Fbg (24 h) of 279.8 mg/dL and a Hb (24 h) of 13.8 g/dL. For the same molecule, the Ht (24 h) was 41.1%, the Lym (24 h) was 78.2% and the MCH (24 h) was 21.7 pg. It also gave an MCHC (24 h) of 33.5%, an MCV (24 h) of 64.9 fL and a Mono (24 h) of 2.6%. It also gave a Neu (24 h) of 18%, a PT (24 h) of 13.4 s and a Plat (24 h) of 112.6 x10_4/uL. It also gave an RBC (24 h) of 634.2 x10_4/ul, a Ret (24 h) of 6.8% and a WBC (24 h) of 104 x10_2/uL. For the same molecule, the KIDNEY_L (24 h) was 0.9 g, the KIDNEY_R (24 h) was 0.9 g and the KIDNEY_TOTAL (24 h) was 1.9 g. It also gave an LIVER (24 h) of 9.6 g, an A/G (24 h) of 0.9 and an ALP (24 h) of 2022.8 IU/L. For the same molecule, the ALT (24 h) was 50 IU/L, the AST (24 h) was 81 IU/L and the BUN (24 h) was 15.4 mg/dL. For the same molecule, the CRE (24 h) was 0.2 mg/dL, the Ca (24 h) was 10.7 mg/dL and the Cl (24 h) was 104.6 meq/L. For the same molecule, the DBIL (24 h) was 0.006 mg/dL, the GLC (24 h) was 171.6 mg/dL and the IP (24 h) was 7.9 mg/dL. It also gave a K (24 h) of 4.3 meq/L, an LDH (24 h) of 116.2 IU/L and a Na (24 h) of 143 meq/L. It also gave a PL (24 h) of 148.2 mg/dL, an RALB (24 h) of 2.6 g/dL and a TBIL (24 h) of 0.056 mg/dL. It also gave a TC (24 h) of 76.4 mg/dL, a TG (24 h) of 83 mg/dL and a TP (24 h) of 5.6 g/dL. It also gave a gamma-GTP (24 h) of 1 IU/L.
